This is an account of results in US10077236B2, “Azacyclic constrained analogs of FTY720” (The Regents of the University of California, priority 2013, dated 2018).

Where two headings read alike, the source gives them in different places.

Data set [1] relates to Sup-B15 BCR-ABL positive human acute lymphoblastic leukemia (ALL) cell line. The data set can be described thus: Cell viability assay, Sup-B15 leukemia cells (flow cytometry, vital dye exclusion). Format: cell-based. The settings on record: for IC50: 72 h, vital dye exclusion and flow cytometry, read-out: Mean IC50 (+/- SEM) in cell viability assay, SupB15 Ph+ ALL; for ability to kill leukemia cells, potency compared in words: Sup-B15 cell viability assays. The text has this: (§1) Leukemia cell assays: Effects of chemical changes on ability to kill cells as observed in cell viability assays using the BCR-ABL positive human acute lymphoblastic leukemia (ALL) cell line, Sup-B15 are described. Assays using the Sup-B15 cell line were designed to determine efficacy of azacyclic constrained small molecule analogs of FTY720 in killing leukemia cells. Analogs were generated using the synthesis methods mentioned above. Sup-B15 cells were maintained at 2-3 million/mL in RPMI 1640 (by Mediatech™) supplemented with 10% fetal calf serum (by Sigma-Aldrich™), 10 mM Hepes (by Mediatech™), 55 μM β-mercaptoethanol (by Sigma-Aldrich™), 2 mM L-glutamine (by Mediatech™), and antibiotics. BV173, Nalm-6, and Blin-1 were maintained at 1-2 million/mL and CCRF-CEM at less than 500,000/mL in the same medium. BMp190 cells were created by transducing murine bone marrow cells with pMIC-p190 which expresses the p190 isoform of BCR-Abl and human CD4 from an IRES; these cells were kept at 1-2 million/mL in RPMI supplemented as above.
(§2) Flow cytometry: Much of the biological activity presented is shown through flow cytometry data. […] Here, IC50 flow cytometry assays were used. In them, viability was determined at 72 hours by vital dye exclusion [propium iodide or DAPI (4′,6-diamindino-2-phenylindole)]. To measure nutrient receptor expression following exposure to FTY720 and azacyclic constrained analogs of FTY720, surface 4F2hc expression was measured after 3 hours of drug treatment by staining 150,000 cells with phycoerythrin-conjugated mouse anti-human CD98 (by BD Biosciences™). Analysis was restricted to viable cells.
(§3) All samples for the disclosed sets of data were analyzed on a BD LSR II flow cytometer and data analyzed with FlowJo™ software (by Treestar™). IC50's were calculated and statistical tests were performed using GraphPad Prism™.

For data set [2], the system named is BMp190 cells (murine bone marrow transduced with BCR-Abl p190). The data set can be described thus: Cell viability assay, BCR-Abl p190-expressing murine bone marrow (BM-p190). It counts as cell-based. The note with it: 72 h, vital dye exclusion and flow cytometry, read-out: Mean IC50 (+/- SEM) in cell viability assay, BM-p190.
Text: as §1, §2, §3

Data set [3] deals with BV173 Ph+ ALL cell line. Kind of data set: Cell viability assay, BV173. Format: cell-based, human. The settings on record: 72 h, vital dye exclusion and flow cytometry, read-out: Mean IC50 (+/- SEM) in cell viability assay, BV173 Ph+ ALL.
Text: as §1, §2, §3

The test system of data set [4] is CCRF-CEM Ph- ALL cell line. The data set can be described thus: Cell viability assay, CCRF-CEM. It counts as cell-based, human. The settings on record: 72 h, vital dye exclusion and flow cytometry, read-out: Mean IC50 (+/- SEM) in cell viability assay, CCRF-CEM Ph- ALL.
Text: as §1, §2, §3

Data set [5] concerns Nalm-6 Ph- ALL cell line. The data set can be described thus: Cell viability assay, Nalm-6. It counts as cell-based, human. The note with it: 72 h, vital dye exclusion and flow cytometry, read-out: Mean IC50 (+/- SEM) in cell viability assay, Nalm-6 Ph- ALL.
Text: as §1, §2, §3

Data set [6] has as its system Blin-1 Ph- ALL cell line. Kind of data set: Cell viability assay, Blin-1. The note with it: 72 h, vital dye exclusion and flow cytometry, read-out: Mean IC50 (+/- SEM) in cell viability assay, Blin-1 Ph- ALL. Format: cell-based, human.
Text: as §1, §2, §3

In data set [7] the test system is PC3 prostate cancer cell line. The data set can be described thus: Cell viability assay, PC3. Format: cell-based, human. The note with it: 72 h, vital dye exclusion and flow cytometry, read-out: Mean IC50 (+/- SEM) in cell viability assay, PC3 prostate. On the procedure:
as §2, with “In them, viability was determined at 72 hours by vital dye exclusion [propium iodide or DAPI (4′,6-diamindino-2-phenylindole)].” left out, “cells. All samples for the disclosed sets of data were analyzed on a BD LSR II flow cytometer and data analyzed with FlowJo™ software (by Treestar™). IC50's were calculated and statistical tests were performed using GraphPad Prism™.” for “cells.”

For data set [8], the system named is DU145 prostate cancer cell line. The data set can be described thus: Cell viability assay, DU145. Format: cell-based, human. The settings on record: 72 h, vital dye exclusion and flow cytometry, read-out: Mean IC50 (+/- SEM) in cell viability assay, DU145 prostate. Here is the method:
as §2, with “In them, viability was determined at 72 hours by vital dye exclusion [propium iodide or DAPI (4′,6-diamindino-2-phenylindole)].” left out, “cells. All samples for the disclosed sets of data were analyzed on a BD LSR II flow cytometer and data analyzed with FlowJo™ software (by Treestar™). IC50's were calculated and statistical tests were performed using GraphPad Prism™.” for “cells.”

For data set [9], the target named is T1, sphingosine kinase 2 (Mus musculus, UniProt Q9JIA7).
T1 construct: endogenous in cells
T1 sequence (Q9JIA7 1-617): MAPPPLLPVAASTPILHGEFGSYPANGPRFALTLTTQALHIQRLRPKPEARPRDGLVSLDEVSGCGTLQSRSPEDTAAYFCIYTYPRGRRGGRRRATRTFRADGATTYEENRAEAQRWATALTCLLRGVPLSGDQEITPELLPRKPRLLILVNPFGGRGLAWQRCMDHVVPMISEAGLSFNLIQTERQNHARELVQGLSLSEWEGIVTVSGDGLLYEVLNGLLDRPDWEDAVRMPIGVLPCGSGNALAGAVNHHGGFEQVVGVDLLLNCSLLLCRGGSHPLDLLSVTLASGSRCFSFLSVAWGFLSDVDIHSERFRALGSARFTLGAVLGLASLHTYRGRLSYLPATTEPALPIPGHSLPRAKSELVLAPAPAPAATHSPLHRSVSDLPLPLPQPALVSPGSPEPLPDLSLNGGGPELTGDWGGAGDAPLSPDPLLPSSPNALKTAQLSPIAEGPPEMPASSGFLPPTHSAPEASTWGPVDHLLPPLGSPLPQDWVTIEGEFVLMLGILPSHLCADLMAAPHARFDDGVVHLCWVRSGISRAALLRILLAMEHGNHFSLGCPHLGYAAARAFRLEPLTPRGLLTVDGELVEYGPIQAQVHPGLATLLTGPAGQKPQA
The data set can be described thus: Phosphorylation by sphingosine kinase 2 in cells. It counts as cell-based. Here is the method: The importance of phosphorylation in the activity of compound 6 was then examined. In this study MEF knockout lines that show the same differential sensitivity to compound 6 relative to its enantiomers as leukemia cells were used (FIG. 10h). […] A phosphate and a non-phosphorylatable analog of compound 6 were then tested.

The nature of data set [10]: Mouse heart rate by telemetry. Format: in vivo. The note with it: telemetry for 24 h after administration of anti-cancer dose. The text has this: (§4) As previously discussed, FTY720 itself cannot be used in cancer patients because phosphorylation of FTY720 by SphKs makes FTY720-P, which acts at S1P receptors to cause bradycardia and immunosuppression (on-target effect for primary use).

Data set [11] concerns circulating lymphocytes. The data set can be described thus: Lymphocyte sequestration (circulating lymphocytes). The settings on record: number of circulating lymphocytes 12 h after dosage. It counts as in vivo, mouse.
Text: as §4

As to `CCCCCCCCc1ccc(CO[C@H]2CN[C@H](CO)C2)cc1.Cl` [Compound 5], the IC50 in data set [1] turned out to be 7.7 ± 0.8 µM; in data set [2], 5.7 ± 1.1 µM; in [3], 10.4 ± 0.7 µM; in data set [4], 11 ± 1.3 µM; in [5], 15 ± 2.1 µM; in [6] it was 7.5 ± 0.1 µM. Besides, the IC50 amounted to 14.3 ± 1.2 µM in data set [7] and 10.8 ± 0.4 µM in data set [8]. The “phosphorylation by sphingosine kinase 2 in cells” value in [9] is “phosphorylated by sphingosine kinase 2 in cells”.
Turning to `CCCCCCCCc1ccc(CO[C@H]2CN[C@H](C)C2)cc1.Cl` [Compound 13], in data set [1], the “ability to kill leukemia cells, potency compared in words” value (“ability … compared in words” for short) is on record as “no detectable effect on the potency”.
For `CCCCCCCCc1ccc(CO[C@@H]2CN[C@@H](C)C2)cc1.Cl` [Compound 14], the “ability … compared in words” value in [1] is given as “decreased the activity”.
As to `CCCCCCCCc1ccc(CO[C@@H]2CN[C@@H](COC)C2)cc1.Cl` [Compound 15, (2R,4S)-2-(methoxymethyl)-4-((4-octylbenzyl)oxy)-pyrrolidine hydrochloride salt], the “ability … compared in words” value in data set [1] (hydrochloride salt) is given as “reduced the potency”.
In the case of `CCCCCCCCc1ccc(COC2CCNC2)cc1.Cl` (centres unmarked) [Compound 16], in [1], the “ability … compared in words” value was “only a marginal effect on activity”.
`CCCCCCCCc1ccc(CCC(N)(CO)CO)cc1.Cl` [FTY720, 2-Amino-2-[2-(4-octylphenyl)ethyl]propane 1,3-diol hydrochloride]: the IC50 stood at 6.8 ± 0.7 µM in data set [1] (Homo sapiens, SUP-B15); 3.3 ± 0.2 µM in [2] (Mus musculus); 6.3 ± 0.4 µM in data set [3] (Homo sapiens, BV-173); 6.8 ± 0.3 µM in data set [4] (Homo sapiens, CCRF-CEM); 9.6 ± 1.9 µM in data set [5] (Homo sapiens, NALM-6); 5.5 ± 0.1 µM in data set [6] (Homo sapiens). Further, the IC50 was determined as 9.8 ± 0.9 µM in data set [7] (Homo sapiens) and 6.5 ± 0.9 µM in [8] (Homo sapiens, DU-145). In [10], the “effect on heart rate” value is listed as “dramatic drop in heart rate”. Moreover, the “lymphocyte sequestration / immunosuppression” value in [11] is listed as “causes lymphocyte sequestration”.
